Laboratory results as given in PMC7177456, “A Peptidomimetic Fluorescent Probe to Detect the Trypsin β2 Subunit of the Human 20S Proteasome” (International Journal of Molecular Sciences, 2020).
Read-outs that look alike come from different tables or passages of the source. Non-standard residues stand in square brackets, D forms with d. *: point of attachment. ACC = NC(=O)Cc1cc(=O)oc2cc(N*)ccc12; AMC = Cc1cc(=O)oc2cc(N*)ccc12; hSer = N[C@@H](CCO)C(=O)O; Boc = CC(C)(C)OC(=O)*

Key:
[1] = target: T1, human 20S proteasome, trypsin-like (β2) subunit (Homo sapiens, UniProt P49720+Q99436); assay: Kinetic parameters of substrate 1 with human 20S proteasome (allosteric fit); assay type: biochemical; conditions: SDS 0.01%, substrate 1
T1 construct: purchased Boston Biochem (Cambridge, MA, USA)
Procedure: For enzymatic studies, the human 20S proteasome, 26S proteasome, and 20S immunoproteasome were purchased from Boston Biochem (Cambridge, MA, USA). The 20S proteasome concentration for library deconvolution was in the nanomolar range, and this proteasome entity was used for the main study. Deconvolution of the peptide libraries was performed using the iterative solution method. Dimethyl sulfoxide (DMSO) was used as a solvent for preparation of the stock solution (5 mg/mL) for each lyophilized sub-library. This stock solution was diluted ten times using an assay buffer (50 mM Tris/HCl buffer (pH 8.2)) for the 20S and 20Si proteasome, and for 26S, the buffer was supplemented with 40 mM KCl, 2 mM EDTA, 1 mM DTT, 100 µM ATP, and 50 µg/mL bovine serum albumin (BSA). The volume composition of each well of the 96-well plate was: 20 µL library, 160 µL assay buffer, and 20 µL 20S proteasome solution at a concentration of 1.07 × 10^−9 M. Absorbance or fluorescence measurements were performed on a FluoroStar OMEGA multimode microplate reader (BMG, Ortenberg, Germany). Absorbance increases were monitored at 410 nm. The excitation and emission wavelengths were 320 and 450 nm respectively, for the ABZ/ANB. Enzymatic hydrolysis of the peptide was performed in the assay buffer at 37 °C and continued over 60 min.
The procedures to determine the kinetic constants Km and kcat are described below. Increasing concentrations of substrate 1 ranged from 1 × 10^−6 to 2 × 10^−5 M. In parallel, a kinetic assay with the artificial activator SDS at 0.01% was also performed. The data were fitted to an allosteric plot using GraphPad prism v6.0 (GraphPad Software Inc., La Jolla, CA, USA). The specificity constants (kcat/ Km) were calculated from the kcat and Km values. Measurements were performed using a 20S proteasome concentration of 1.07 × 10^−9 M. Three to five measurements were performed for each compound dilution (the systematic error, defined as the standard deviation, never surpassed 20%). The initial hydrolysis rates were used as the amount of enzymatic activity for the tested compounds. All kinetic study details and kinetic parameters have been described elsewhere.

[2] = test system: trypsin-like subunit of the 20S proteasome; conditions: cited from earlier work; for selectivity for the trypsin subunit / selectivity for trypsin-like specificity: introduction; for selectivity for trypsin-like specificity: commercially available substrates, no reference given
Text: Table 1 Overview of the fluorogenic substrates of the trypsin-like subunit of the 20S proteasome. | column: Km (µM); kcat (s^−1); kcat/Km (M^−1 s^−1) || The aim of this work is to develop a new substrate to assay the trypsin-like specificity of the human 20S proteasome that is created by DAPEG building blocks, which are N-substituted functionalized derivates of 3-diaminopropionic acid (Figure 1). The substrate preferences of the β2 subunit have been previously examined. Harris and coworkers described the development of new substrates selected via combinatorial library screening. The substrate peptides were labeled with 7-amino-4-carbamoylmethylcoumarin (ACC) as a reporter moiety, and a specific sequence of the β2 subunit, Ac–Glu– ...

20S proteasome = assay: Inhibitory studies: cleavage of substrate 1 in the presence of selective proteasome inhibitors; assay type: biochemical, human; conditions: 30 min preincubation at 37 °C, 20S 1.07 × 10^−9 M, substrate 1.34 × 10^−5 M, triplicate
Text: A black, 96-well flat-bottomed microplate (Brand GMBH, Wertheim, Germany) was used for the inhibitory studies. Two inhibitors, carfilzomib (a selective inhibitor of the β5 subunit of the 20S proteasome) and epoxomicin, were purchased from Merck (Darmstadt, Germany) and used at final concentrations of 1.15 × 10^−6 M and 5.0 × 10^−5 M, respectively. The β2 inhibitor, PR671A [20], and the β1 inhibitor, NCOO1 [21], were used at a concentration of 5 × 10^−6 M. These reagents were kindly provided by Alexei Kisselev from Dartmouth University (Dartmouth, NH, USA). The concentration of 20S proteasome was 1.07 × 10^−9 M. The buffered proteasome solution was mixed with 10 µL inhibitor solution. This mixture was incubated for 30 min at 37 °C. After this period, the substrate solution was added at a concentration of 1.34 × 10^−5 M, and the fluorescence was measured over time at 320 nm excitation and 450 nm emission wavelengths. All measurements were performed in triplicate.

[3] = test system: neutrophil-related proteases / neutrophil serine protease 4 (NSP4); conditions: ref [19], cited from earlier work
Text: Recently, we established a new method for the selection and synthesis of artificial fluorogenic substrates composed of DAPEG residues (Figure 1). For the screening of 18 libraries, we created a series of compounds based on the neutrophil serine protease 4 (NSP4) substrate sequence (ABZ–X4–X3–X2–Arg–ANB–NH2) diversified in positions X4 to X2 with DAPEG, resulting in a total of almost 6000 compounds.

[4] = test system: chymotrypsin subunit (β5) of the 20S proteasome in human urine; assay: Proteasome activity in human urine with the β5 substrate; assay type: biochemical
Procedure: All urine samples were purchased from St. Vincent de Paul Hospital in Gdynia, Poland (contract no. JN/777/R720/08.11.17). All methods and procedures were performed in accordance with this contract agreement. Participants were informed about the study and sample collection, and their written consent was collected. […] Therefore, the samples were considered unnamed. The samples of human urine were taken during mid-urination and kept for 48 h at −80 °C until required. All samples used for assay development were taken from healthy volunteers (n = 5), and oncological samples were obtained from patients diagnosed with bladder cancer (n = 8).
In parallel, the urine samples were analyzed using the previously developed substrate ABZ–Val–Val–Ser–Tyr–Ala–Met–Gly–Tyr(3-NO2)–NH2 [21] in two systems: one with the artificial activator SDS at 0.01% and the second without any SDS. The fluorescence of the system was recorded over time. The same conditions for excitation and emission were used as above. All measurements were performed in triplicate.
The resulting data were analyzed using Graphpad Prism version 6.0 software (GraphPad Software Inc., La Jolla, CA, USA). All fluorescent measurements were performed in triplicate and represented by the mean ± standard deviation (SD). A two-tailed Mann–Whitney test was applied for the statistical analysis (p < 0.0001).

With CCCCCCCCCCCCOS(=O)(=O)[O-].[Na+] [SDS, sodium dodecyl sulfate] the “effect on β2 subunit activity of the 20S proteasome” value [1] was “not significantly altered”.
For “ABZ–Val–Val–Ser–GNF–Ala–Met–Gly–Tyr(3-NO2)–NH2”, the Km ([2]; ref [21]) is listed as 4.24 ± 0.87 µM, the kcat ([2]; ref [21]) is listed as 8.41 ± 0.57 s⁻¹ and the kcat/Km ([2]; ref [21]) is listed as 1,983,100 ± 2754 M^−1 s^−1.
For Ac-[dR][hSer]TR-{ACC}, the “selectivity for the trypsin subunit” value ([2]; ref [18]) is given as “moderate selectivity at higher proteasome concentrations”, the Km ([2]; ref [18]) is given as 9.43 ± 0.82 µM and the kcat ([2]; ref [18]) is given as 2.84 ± 0.22 s⁻¹. For the same compound, the kcat/Km ([2]; ref [18]) was 301,005 ± 28,471 M^−1 s^−1 and the kcat/Km ([2]; ref [18], listed as Ac–DArg–Hse–Thr–Arg–ACC) was 301,005 M^−1 s^−1.
For “Ac-Leu-Arg-Arg-{AMC} [commercially available 20S proteasome substrate]”, the “selectivity for trypsin-like specificity” value [2] is given as “significant selectivity”.
For “Boc-Leu-Arg-Arg-{AMC} [commercially available 20S proteasome substrate]”, the “selectivity for trypsin-like specificity” value [2] is given as “significant selectivity” and the kcat/Km ([2]; ref [22]) is given as <500 M⁻¹ s⁻¹.
In the case of CC[C@H](C)[C@H](NC(=O)[C@H]([C@@H](C)CC)N(C)C(C)=O)C(=O)N[C@H](C(=O)N[C@@H](CC(C)C)C(=O)[C@@]1(C)CO1)[C@@H](C)O [epoxomicin], the “effect on cleavage of substrate 1” value (20S proteasome; epoxomicin (general inhibitor) 5.0 × 10^−5 M) is reported as “proteolytic suppression of substrate 1”.
In the case of Ac–βAla–Met(O)2–Thr–Arg–ACC, the “selectivity for the trypsin subunit” value ([2]; ref [18]) is listed as “most selective”, the Km ([2]; ref [18]) is listed as 50.9 ± 2.99 µM and the kcat ([2]; ref [18]) is listed as 2.23 ± 0.07 s⁻¹. The kcat/Km ([2]; ref [18]) was 43,790 ± 3233 M^−1 s^−1 and the kcat/Km ([2]; ref [18], listed as Ac–βAla–Met(O2)–Thr–Arg–ACC) was 43,790 M^−1 s^−1.
With CC(C)C[C@H](NC(=O)[C@H](CCc1ccccc1)NC(=O)CN1CCOCC1)C(=O)N[C@@H](Cc1ccccc1)C(=O)N[C@@H](CC(C)C)C(=O)[C@@]1(C)CO1 [carfilzomib] the “effect on cleavage of substrate 1” value (20S proteasome; carfilzomib (β5) 1.15 × 10^−6 M) was “a slight activation of the cleavage rate”.
For “ABZ–Dap(O2(Cbz))–Dap(Cbz)–Dap(GO1)–Arg–ANB–NH2”, the “specificity constant (kcat/Km)” value ([3]; NSP4 substrate-based library) is listed as 130000 M⁻¹ s⁻¹ and the “selectivity towards neutrophil-related proteases” value [3] is listed as “high levels of selectivity”.
For “ABZ–Val–Val–Ser–Tyr–Ala–Met–Gly–Tyr(3-NO2)–NH2 [previously developed substrate]”, the “fluorescence increase, healthy samples” value ([4]; healthy urine, all systems (with and without SDS), n = 5) was “no visible fluorescence increase”, the “bladder cancer samples with fluorescence increase” value ([4]; with SDS 0.01%, 8 bladder cancer samples, triplicate) was “seven systems (1–5, 7, and 8)” and the “fluorescence increase rate, sample N° 6” value ([4]; with SDS 0.01%, bladder cancer sample N° 6) was “insignificant”. For the same compound, the “bladder cancer samples with visible fluorescence increase” value ([4]; without SDS, 8 bladder cancer samples, 320/450 nm, triplicate) was 2 out of the 8.
